Reference: PubChem BioAssay AID1918996 (Molecular Pharmacology Branch, DTP, NCI, 2023)

Tested on: 349418-098-R-PDC complex spheroid growth
Assay: Anticancer human tumor 349418-098-R-PDC patient-derived lung adenocarcinoma cell line growth inhibition [AhR]
Conditions: for IC50: curve of first compound; for viability, T/C: stronger effect = lower value
Description: Multicellular complex tumor spheroid response to aryl hydrocarbon receptor antagonists in combination with a variety of drugs and investigational agents in selected tumor cell lines
The current study was undertaken to assess response to aryl hydrocarbon receptor antagonists in combination with standard-of-care drugs and investigational agents in solid tumor complex spheroid models. Complex spheroids include a stromal component modeled by human endothelial cells (HUVEC) and fibroblasts modeled by human mesenchymal stem cells (MSCs). The concentration ranges selected for each drug and investigational agent were based upon clinically achievable concentrations if the clinical Cmax of the agent was known.
Compounds. The drugs and investigational agents: BAY 2416964 (NSC825713), GNF351 (NSC835774), CH-223191 (NSC835775), CPI-455 (NSC825282), aza-TdCyd (NSC777586), decitabine (NSC127716), belinostat (NSC758774), entinostat (NSC756642), pevonedistat (NSC761192), tazemetostat (NSC777109), talazoparib (NSC765396), olaparib (NSC753686), selinexor (NSC780203), nedisertib (M3814, NSC802822), bortezomib (NSC756655), venetoclax (NSC766270), doxorubicin (NSC123127), elimusertib (BAY189344, NSC800525), ceralasertib (AZD6738, NSC777638), TAK-243 (NSC785004), alisertib (NSC759677), etoposide (NSC141540), topotecan (NSC609699), eribulin (NSC707389), gemcitabine (NSC613327), carboplatin (NSC241240), cisplatin (NSC119875), and SN-38 (NSC673596) were obtained from the National Cancer Institute (NCI) Developmental Therapeutics Program Chemical Repository (32). The FDA-approved anticancer drug set is available from the Developmental Therapeutics Program at https://dtp.cancer.gov/organization/dscb/obtaining/available plates.htm. […] The stock solutions were prepared in dimethyl sulfoxide (DMSO, Sigma-Aldrich, St. Louis, MO, cat. D2650), except for the platinum compounds which were prepared in saline (Quality Biological, Gaithersburg, MD, cat. 114-055-101), at 800-fold the tested concentration and stored at -70 degrees C prior to their use. All drugs and investigational agents were tested over a range starting from a high concentration at or near the clinical Cmax and decreasing in half-log increments. If the clinical Cmax for an agent had not been determined, the highest concentration tested was 10 microM (Table 1).
Cell Culture. All cells were maintained in an incubator at 37 degrees C and 5% CO2 with 95% humidity. The PDC lines were cultured according to standard operating procedures established by the NCI PDMR (https://pdmr.cancer.gov). Briefly, all PDCs were thawed and cultured in Matrigel-coated flasks prepared with a working solution of 1X Ham's F-12 nutrient mix, without supplementation (Invitrogen, Waltham, MA, cat. 11765054), 100 U/mL penicillin-streptomycin (Invitrogen, cat. 15140122), and 2.5% Matrigel (Corning Inc., Corning, NY, cat. 354248) for the first three passages. All PDCs were cultured in complete DMEM/F-12 media containing advanced DMEM/F-12 (Invitrogen, cat. 12634028), 4.9% defined fetal bovine serum, heat inactivated (HyClone Laboratories Inc., Logan, UT, cat. SH30070.03HI), 389 ng/mL hydrocortisone (Sigma-Aldrich, cat. H4001), 9.7 ng/mL human EGF recombinant protein (Invitrogen, cat. PHG0313), 23.4 microg/mL adenine (Sigma-Aldrich, cat. A2786), 97.3 U/mL penicillin-streptomycin (Invitrogen, cat. 15140122), 1.9 mM L-glutamine (Invitrogen, cat. 25030081), and 9.7 microM Y-27632 dihydrochloride (Tocris Bioscience, Bristol, United Kingdom, cat. 1254). The PDCs were cultured in complete DMEM/F12 media without 10 microM Y-27632 dihydrochloride for at least two passages prior to the screen. The established cell lines NCI-H1341 and […] were cultured in DMEM/F-12, HEPES (Invitrogen, cat. 11330032), 5% defined fetal bovine serum (HyClone Laboratories Inc., cat. SH30070.03), ITS premix universal culture supplement [insulin (5 microg/mL), transferrin (5 microg/mL), and selenious acid (5 ng/mL)] […]

[1] = second compound 0.1 µM, first compound 0.00949 µM
[2] = second compound 0.1 µM, first compound 0.03 µM
[3] = second compound 0.1 µM, first compound 0.0949 µM
[4] = second compound 0.1 µM, first compound 0.3 µM
[5] = second compound 0.1 µM, first compound 0.949 µM
[6] = second compound 0.1 µM, first compound 3 µM
[7] = second compound 0.316 µM, first compound 0.00949 µM
[8] = second compound 0.316 µM, first compound 0.03 µM
[9] = second compound 0.316 µM, first compound 0.0949 µM
[10] = second compound 0.316 µM, first compound 0.3 µM
[11] = second compound 0.316 µM, first compound 0.949 µM
[12] = second compound 0.316 µM, first compound 3 µM
[13] = second compound 1 µM, first compound 0.00949 µM
[14] = second compound 1 µM, first compound 0.03 µM
[15] = second compound 1 µM, first compound 0.0949 µM
[16] = second compound 1 µM, first compound 0.3 µM
[17] = second compound 1 µM, first compound 0.949 µM
[18] = second compound 1 µM, first compound 3 µM
[19] = second compound 3.16 µM, first compound 0.00949 µM
[20] = second compound 3.16 µM, first compound 0.03 µM
[21] = second compound 3.16 µM, first compound 0.0949 µM
[22] = second compound 3.16 µM, first compound 0.3 µM
[23] = second compound 3.16 µM, first compound 0.949 µM
[24] = second compound 3.16 µM, first compound 3 µM
[25] = second compound 10 µM, first compound 0.00949 µM
[26] = second compound 10 µM, first compound 0.03 µM
[27] = second compound 10 µM, first compound 0.0949 µM
[28] = second compound 10 µM, first compound 0.3 µM
[29] = second compound 10 µM, first compound 0.949 µM
[30] = second compound 10 µM, first compound 3 µM
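Also: spheroids exposed to agents for seven days before luminescence viability read.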
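For viability, T/C in this document: spheroids also contain HUVEC endothelial cells and human MSC stroma.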

With `O=C(C=Cn1cnc(-c2cc(C(F)(F)F)cc(C(F)(F)F)c2)n1)NNc1cnccn1` + CC(CO)NC(=O)c1cc(-c2ccc(Cl)cc2)nn(-c2cnn(C)c2)c1=O the IC50 (second compound 0.1 µM) was < 9.49 nM, the IC50 (second compound 0.316 µM) was < 9.49 nM and the IC50 (second compound 1 µM) was 16.9 nM. The IC50 (second compound 3.16 µM) was < 9.49 nM, the IC50 (second compound 10 µM) was < 9.49 nM and the viability, T/C [1] was 44.2%. For the same compound, the viability, T/C [2] was 32.1%, the viability, T/C [3] was 18% and the viability, T/C [4] was 9.7%. For the same compound, the viability, T/C [5] was 8.06%, the viability, T/C [6] was 6.68% and the viability, T/C [7] was 42.7%. The viability, T/C [8] was 34.2%, the viability, T/C [9] was 22.2% and the viability, T/C [10] was 10.9%. The viability, T/C [11] was 7.86%, the viability, T/C [12] was 5.14% and the viability, T/C [13] was 62.4%. For the same compound, the viability, T/C [14] was 37.9%, the viability, T/C [15] was 20.1% and the viability, T/C [16] was 11.7%. The viability, T/C [17] was 9.27%, the viability, T/C [18] was 5.79% and the viability, T/C [19] was 48%. The viability, T/C [20] was 43.3%, the viability, T/C [21] was 18.6% and the viability, T/C [22] was 9.44%. For the same compound, the viability, T/C [23] was 7.82%, the viability, T/C [24] was 5.81% and the viability, T/C [25] was 36.1%. The viability, T/C [26] was 34.6%, the viability, T/C [27] was 18.9% and the viability, T/C [28] was 8.82%. For the same compound, the viability, T/C [29] was 7.38% and the viability, T/C [30] was 6.61%.

For `Nc1ccccc1NC(=O)c1ccc(CNC(=O)OCc2cccnc2)cc1` + Cc1cncc(-c2nc(NCCc3c[nH]c4ccccc34)c3ncn(C(C)C)c3n2)c1, the IC50 (second compound 0.1 µM) was 612 nM, the IC50 (second compound 0.316 µM) was 759 nM and the IC50 (second compound 1 µM) was 517 nM. For the same compound, the IC50 (second compound 3.16 µM) was < 31.6 nM, the IC50 (second compound 10 µM) was < 31.6 nM and the viability, T/C (second compound 0.1 µM, first compound 0.0316 µM) was 79.9%. The viability, T/C (second compound 0.1 µM, first compound 0.1 µM) was 69.6%, the viability, T/C (second compound 0.1 µM, first compound 0.316 µM) was 58.4% and the viability, T/C (second compound 0.1 µM, first compound 1 µM) was 46.7%. For the same compound, the viability, T/C (second compound 0.1 µM, first compound 3.16 µM) was 19.9%, the viability, T/C (second compound 0.1 µM, first compound 10 µM) was 4.89% and the viability, T/C (second compound 0.316 µM, first compound 0.0316 µM) was 69.7%. It also gave a viability, T/C (second compound 0.316 µM, first compound 0.1 µM) of 73.5%, a viability, T/C (second compound 0.316 µM, first compound 0.316 µM) of 57.3% and a viability, T/C (second compound 0.316 µM, first compound 1 µM) of 47.7%. The viability, T/C (second compound 0.316 µM, first compound 3.16 µM) was 25.6%, the viability, T/C (second compound 0.316 µM, first compound 10 µM) was 4.93% and the viability, T/C (second compound 1 µM, first compound 0.0316 µM) was 72.6%. For the same compound, the viability, T/C (second compound 1 µM, first compound 0.1 µM) was 67.5%, the viability, T/C (second compound 1 µM, first compound 0.316 µM) was 54.9% and the viability, T/C (second compound 1 µM, first compound 1 µM) was 43.2%. The viability, T/C (second compound 1 µM, first compound 3.16 µM) was 20.1%, the viability, T/C (second compound 1 µM, first compound 10 µM) was 4.95% and the viability, T/C (second compound 3.16 µM, first compound 0.0316 µM) was 12.8%. For the same compound, the viability, T/C (second compound 3.16 µM, first compound 0.1 µM) was 15.7%, the viability, T/C (second compound 3.16 µM, first compound 0.316 µM) was 9.2% and the viability, T/C (second compound 3.16 µM, first compound 1 µM) was 12.1%. For the same compound, the viability, T/C (second compound 3.16 µM, first compound 3.16 µM) was 7.68%, the viability, T/C (second compound 3.16 µM, first compound 10 µM) was 2.59% and the viability, T/C (second compound 10 µM, first compound 0.0316 µM) was 1%. For the same compound, the viability, T/C (second compound 10 µM, first compound 0.1 µM) was 1.06%, the viability, T/C (second compound 10 µM, first compound 0.316 µM) was 0.67% and the viability, T/C (second compound 10 µM, first compound 1 µM) was 0.76%. It also gave a viability, T/C (second compound 10 µM, first compound 3.16 µM) of 0.51% and a viability, T/C (second compound 10 µM, first compound 10 µM) of 0.34%.

`CCN(c1cc(-c2ccc(CN3CCOCC3)cc2)cc(C(=O)NCc2c(C)cc(C)[nH]c2=O)c1C)C1CCOCC1` + Cc1ccccc1N=Nc1ccc(NC(=O)c2ccnn2C)c(C)c1 was tested, and the IC50 (second compound 0.1 µM) was > 3000 nM, the IC50 (second compound 0.316 µM) was > 3000 nM and the IC50 (second compound 1 µM) was 1550 nM. The IC50 (second compound 3.16 µM) was 1450 nM, the IC50 (second compound 10 µM) was 154 nM and the viability, T/C [1] was 68.2%. It also gave a viability, T/C [2] of 97.2%, a viability, T/C [3] of 67.4% and a viability, T/C [4] of 56.3%. It also gave a viability, T/C [5] of 86.4%, a viability, T/C [6] of 53.1% and a viability, T/C [7] of 101%. It also gave a viability, T/C [8] of 69.1%, a viability, T/C [9] of 95.9% and a viability, T/C [10] of 72.4%. For the same compound, the viability, T/C [11] was 70.4%, the viability, T/C [12] was 64% and the viability, T/C [13] was 87.8%. The viability, T/C [14] was 121%, the viability, T/C [15] was 85.5% and the viability, T/C [16] was 78.3%. It also gave a viability, T/C [17] of 56.5%, a viability, T/C [18] of 42% and a viability, T/C [19] of 76.8%. The viability, T/C [20] was 68.9%, the viability, T/C [21] was 75.2% and the viability, T/C [22] was 59%. For the same compound, the viability, T/C [23] was 55.8%, the viability, T/C [24] was 42.3% and the viability, T/C [25] was 59.4%. For the same compound, the viability, T/C [26] was 71.1%, the viability, T/C [27] was 54.9% and the viability, T/C [28] was 38.4%. It also gave a viability, T/C [29] of 49.2% and a viability, T/C [30] of 42.1%.
